Assay results from US6586403B1, “Treating allergic reactions and inflammatory responses with tri-and dipeptides” (Salpep Biotechnology, Inc., priority 2000, dated 2003).
Ends that are not written are not given here.

Columns and labels:
CD16b [1] = test: PAF induced CD16b expression on human neutrophils detected by CD16a.FITC; assay type: cell-based; conditions: 10-11M peptide; PAF 10^-9M (FIG. 11)
Experimental: (§1) The expression of CD11b and CD16b on the surface of neutrophils are represented as the difference in the mean fluorescence intensity (MFI) measured in cells incubated in the presence of PAF alone and those incubated with 10-11M concentration of peptide and PAF. Many of the tripeptides reduced the expression of CD11b and CD16b on human neutrophils that had been stimulated with platelet activating factor (PAF; 10^-9M).
(§2) Leukocytes were isolated from the blood of normal healthy volunteers. The blood (20 ml) was brought to a final volume of 50 ml with cold lysis buffer (155 mM NH4Cl, 10 mM KHCO3, 1 mM disodium EDTA, pH 7.4). […]
(§3) Once isolated the neutrophils were prepared to a final concentration of […] in phosphate buffered saline (PBS). […] The supernatant is decanted off carefully and 300 μl of PBS is added to the neutrophils and cells are read with a Fluorescence Activated Cell Sorter (FACS).
(§4) The effects of the peptides on CD11b or CD16b expression were evaluated by determining the changes in mean fluorescence intensity (MFI) of cells incubated in the presence of peptide and PAF and the those incubated in presence of PAF alone, after subtracting the background (Control) MFI expressed in cells incubated with neither PAF nor a peptide. […]

sensitized rat ileum = test: Antigen induced contraction of the sensitized rat ileum (intestinal anaphylaxis in vitro); assay type: cell-based; conditions: 10 ig of peptide in bath, 10 min, then 1 mg OA (FIG. 1)
Experimental: The Biological Response. The addition of antigen (OA) induced a slow tonic contraction of the intestinal (ileal) segments which peaked within 2 to 3 minutes before slowly receding to the baseline tension over 4 to 5 minutes. Urecholine (URE) produced a rapid tonic contraction that reached its maximum in 10 to 15 seconds. […] When FEG was added to the bath the OA/URE ratio was only 0.12±0.04, or 44% of the control response.
Effects of C-terminus substitutions, N-terminus substitutions, aromatic substitution at position 1, and Asp substitution at position 2 in both L and D forms in FEG, and removal of the glycine on inhibition of intestinal anaphylaxis in vitro.
In this in vitro motility study analogues of the tripeptide FEG were examined for their inhibitory effects on an anaphylactic reaction provoked by antigen on intestinal segments isolated from ovalbumin sensitized rats. […] Four to six weeks following sensitization, the terminal ileum was excised and 2 cm sections were mounted in 20 ml organ baths under 0.75 g of tension and the isometric force generated by OA and urecholine (Frosst, Kirkland, QC) was measured using a Grass Force Displacement Transducer FT03 (Quincy, Mass.). […] Anti-anaphylactic properties of FEG and its analogues were determined by adding 10 ig of peptide to a bath and incubating for 10 min. […] OA contractile response was measured at peak contraction. […]

CD16b [2] = test: PAF induced CD16b expression on human neutrophils detected by CD16b.FITC; assay type: cell-based; conditions: 10-11M peptide; PAF 10^-9M (FIG. 11)
Experimental: as §1, §2, §3, §4

Sprague Dawley rats = test: Intestinal motility disturbances (MMC disruption) caused by intravenous endotoxin; assay type: in vivo, rat
Experimental: Intravenous injection of LPS at either 10 or 20 μg/kg disrupted the normal fasting pattern of intestinal MMCs into the characteristic fed pattern which persisted for 85±3 min (n=3) and 105±8 min (n=15), respectively. The disruptions in the MMCs developed within 20±4 min and 17±1 min for the respective 10 and 20 μg/kg doses of LPS. The 20 μg/kg dose of LPS was used for subsequent experiments.
Intestinal Motility. Male and female Sprague Dawley rats, weighing 200-250 g were raised at the Life and Environmental Sciences Animal Resource Centre, The University of Calgary. The rats were maintained with lights on from 7:00 to 19:00 h, and were provided food and water ad libitum. For the intestinal motility experiments lipopolysaccharide (LPS; Salmonella typhosa; Sigma Chemical Co., St. Louis, […].) was injected intravenously at a dose of 20 μg/kg (Helistrom et al, 1997).
For motility recording rats were surgically prepared, as previously described (Mathison et al, 1998), with three bipolar jejunal electrodes under halothane anesthesia following an 18 h fast. A plastic cannula, with three pairs of Teflon-coated stainless steel bipolar electrodes, was positioned in an intrascapular region. The wires were subcutaneously tunnelled to the anterior abdominal wall, entering the peritoneal cavity through a stab incision. […] An eight-channel chart recorder (Hewlett-Packard, model 7858A) simultaneously recorded the electric signals generated by the migrating myoelectric complexes (MMCs), for three cycles before and 120 min after intravenous challenge with 20 μg/kg of LPS. […]
Changes in intestinal motility were detected by modifications in jejunal myoelectric activity from the standard MMCs that occur in fasting animals to a totally disrupted pattern of intense, irregular myoelectric electricity that developed with the endotoxic reaction. Before and after challenge with LPS, the cycle period of MMCs was determined by measuring the time between the ends of phase III activity (the marked increase in regular phasic myoelectric and motor activity) of successive MMCs.

[3] = doses as low as 1 μg/kg; cited from earlier work
leukocytes = conditions: in vivo; cited from earlier work

H-D-cha-D-glu-NH2 [(cha)e(NH2)]
CD16b expression detected by CD16a.FITC (CD16b [1]): reduced

H-D-cha-D-glu-OH [(cha)e]
biological activity: inhibition of antigen induced contraction of the ileum (sensitized rat ileum): active | CD16b expression detected by CD16b.FITC (CD16b [2]): reduced

H-D-phe-D-glu-Gly-NH2 [feG(NH2)]
inhibition of LPS induced disruption of the MMCs, dose response (Sprague Dawley rats; FIG. 3b): very potent | CD16b expression detected by CD16a.FITC (CD16b [1]): reduced

TDIFEGG [SGP-T]
duration of MMC disruption (Sprague Dawley rats; intravenous dose of 350 μg/kg): significantly reduced | duration of LPS disrupted intestinal MMCs (Sprague Dawley rats; intravenous, 100 μg/kg, 20 min before LPS 20 μg/kg iv): ineffective | lipopolysaccharide induced hypotension [3]: inhibits | rolling of leukocytes on mesenteric venules induced by LPS and histamine (leukocytes): prevents
